ChEMBL document CHEMBL1201862, “PubChem BioAssay data set” (2004)
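Protocol summary: plate cells (96-well), add compound at 5 concentrations, incubate 48 h, interpolate endpoints linearly. GI50 is the concentration that inhibits growth by half.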 Calls of active or inactive are those of the source. Rule as the data show it: active = GI50 up to about 1.1 µM and inactive = higher.

Legend:
Experiment in all cases: NCI anticancer screen, dose series, 48 h
MCF7 = tested on: MCF7
UO-31 = tested on: UO-31
HL-60 = tested on: HL-60
MDA-N = tested on: MDA-N
SNB-19 = tested on: SNB-19
HOP-62 = tested on: HOP-62
COLO 205 = tested on: COLO 205
DU-145 = tested on: DU-145
NCI-H23 = tested on: NCI-H23
OVCAR-4 = tested on: OVCAR-4
KM12 = tested on: KM12
LOX IMVI = tested on: LOX IMVI
CAKI-1 = tested on: CAKI-1
SK-MEL-5 = tested on: SK-MEL-5
HCT-116 = tested on: HCT-116
MDA-MB-231 = tested on: MDA-MB-231
RXF 393 = tested on: RXF 393
T47D = tested on: T47D
SF-295 = tested on: SF-295
RPMI-8226 = tested on: RPMI-8226

SMILES	GI50 (MCF7)	GI50 (UO-31)	GI50 (HL-60)	GI50 (MDA-N)	GI50 (SNB-19)	GI50 (HOP-62)	GI50 (COLO 205)	GI50 (DU-145)	GI50 (NCI-H23)	GI50 (OVCAR-4)	GI50 (KM12)	GI50 (LOX IMVI)	GI50 (CAKI-1)	GI50 (SK-MEL-5)	GI50 (HCT-116)	GI50 (MDA-MB-231)	GI50 (RXF 393)	GI50 (T47D)	GI50 (SF-295)	GI50 (RPMI-8226)
CC1=COC2=C(C)C(=O)C(=O)c3c(C)ccc1c32 [MANSONONE F]	2.69 µM (inactive)	14.7 µM (inactive)	2.1 µM (inactive)	1.78 µM (inactive)	4.07 µM (inactive)	4.52 µM (inactive)	2.55 µM (inactive)	6.21 µM (inactive)	2.84 µM (inactive)	2.77 µM (inactive)	3.93 µM (inactive)	3.66 µM (inactive)	20.3 µM (inactive)	0.859 µM (active)	2.61 µM (inactive)	3.28 µM (inactive)	7.18 µM (inactive)	8.24 µM (inactive)	5.48 µM (inactive)	1.42 µM (inactive)
[N-]=[N+]=NC1(c2ccccc2)C(=O)Nc2ccccc2C1=O (stereo not given)	35 µM (inactive)	22.1 µM (inactive)	34.5 µM (inactive)	21.4 µM (inactive)	38 µM (inactive)	41.8 µM (inactive)	71.4 µM (inactive)	75.5 µM (inactive)	34.9 µM (inactive)	54.7 µM (inactive)	30.1 µM (inactive)	37.5 µM (inactive)	32.2 µM (inactive)	14.9 µM (inactive)	30.3 µM (inactive)	55.2 µM (inactive)	25.5 µM (inactive)	95.5 µM (inactive)	56.4 µM (inactive)	22.7 µM (inactive)
C=C1C(=O)O[C@H]2C/C(C)=C/CC[C@@]3(C)O[C@](C)(CC[C@@H]3I)[C@@H](I)C[C@@H]12	2.25 µM (inactive)	5.66 µM (inactive)	0.893 µM (active)	2.49 µM (inactive)	6.95 µM (inactive)	8.59 µM (inactive)	3.39 µM (inactive)	5.04 µM (inactive)	8.69 µM (inactive)	6.14 µM (inactive)	3.61 µM (inactive)	1.56 µM (inactive)	7.19 µM (inactive)	3.32 µM (inactive)	2.92 µM (inactive)	6.75 µM (inactive)	3.97 µM (inactive)	5.46 µM (inactive)	6.84 µM (inactive)	0.959 µM (active)
CCn1c(SCC(=O)N/N=C2\SCC(=O)N2c2ccc(C)cc2)nc2ccccc2c1=O	20.6 µM (inactive)	15.1 µM (inactive)	92.3 µM (inactive)	23.6 µM (inactive)	20.8 µM (inactive)	21.7 µM (inactive)	50.9 µM (inactive)	28.2 µM (inactive)	19.1 µM (inactive)	18.2 µM (inactive)	19.4 µM (inactive)	25.2 µM (inactive)	18.7 µM (inactive)	22.9 µM (inactive)	20 µM (inactive)	20.2 µM (inactive)	17.4 µM (inactive)	25.1 µM (inactive)	18.6 µM (inactive)	18.5 µM (inactive)
CCOC(=O)CNC1=NNS(=O)(=O)c2ccccc21	> 100 µM (inactive)	> 100 µM (inactive)	66.5 µM (inactive)	> 100 µM (inactive)	> 100 µM (inactive)	> 100 µM (inactive)	> 100 µM (inactive)	> 100 µM (inactive)	> 100 µM (inactive)	> 100 µM (inactive)	> 100 µM (inactive)	> 100 µM (inactive)	> 100 µM (inactive)	> 100 µM (inactive)	> 100 µM (inactive)	> 100 µM (inactive)	> 100 µM (inactive)	> 100 µM (inactive)	> 100 µM (inactive)	> 100 µM (inactive)
CCCCOCCOCCOC1=C(Cl)C(=O)c2c(O)ccc(O)c2C1=O	0.218 µM (active)	1.35 µM (inactive)	0.144 µM (active)	0.728 µM (active)	1.77 µM (inactive)	1.19 µM (inactive)	0.259 µM (active)	1.77 µM (inactive)	0.984 µM (active)	0.359 µM (active)	1.79 µM (inactive)	0.512 µM (active)	0.209 µM (active)	0.565 µM (active)	0.401 µM (active)	0.488 µM (active)	0.809 µM (active)	0.488 µM (active)	1.73 µM (inactive)	0.212 µM (active)
c1cc2nnc1SCCCSc1ccc(nn1)SCCCSc1ccc(nn1)SCCCS2	> 100 µM (inactive)	> 100 µM (inactive)	> 100 µM (inactive)	> 100 µM (inactive)	44.7 µM (inactive)	39.6 µM (inactive)	> 100 µM (inactive)	> 100 µM (inactive)	> 100 µM (inactive)	> 100 µM (inactive)	> 100 µM (inactive)	> 100 µM (inactive)	> 100 µM (inactive)	> 100 µM (inactive)	> 100 µM (inactive)	97.3 µM (inactive)	56.4 µM (inactive)	> 100 µM (inactive)	> 100 µM (inactive)	> 100 µM (inactive)
CO/N=C(\C)c1cccc(Nc2c3ccccc3nc3occc23)c1	6.47 µM (inactive)	12.8 µM (inactive)	3.53 µM (inactive)	4.35 µM (inactive)	17.5 µM (inactive)	6.37 µM (inactive)	5.24 µM (inactive)	18.9 µM (inactive)	7.45 µM (inactive)	4.75 µM (inactive)	8.81 µM (inactive)	10.4 µM (inactive)	4.82 µM (inactive)	6.22 µM (inactive)	8.34 µM (inactive)	9.79 µM (inactive)	0.0454 µM (active)	7.23 µM (inactive)	5.46 µM (inactive)	4.36 µM (inactive)
COc1cc2c(cc1C)NC(=O)/C2=C/c1c(Cl)n(C)c2ccccc12	3.45 µM (inactive)	7.05 µM (inactive)	2.61 µM (inactive)	2.15 µM (inactive)	12.8 µM (inactive)	11.1 µM (inactive)	5.11 µM (inactive)	10.3 µM (inactive)	6.27 µM (inactive)	6.87 µM (inactive)	3.34 µM (inactive)	7.69 µM (inactive)	5.06 µM (inactive)	4.79 µM (inactive)	5.46 µM (inactive)	12.9 µM (inactive)	4.1 µM (inactive)	2.62 µM (inactive)	7.66 µM (inactive)	3.13 µM (inactive)
O=C1c2ccccc2-c2ccc(N(Cc3ccc(Br)cc3)Cc3ccc(Br)cc3)cc21	> 100 µM (inactive)	> 100 µM (inactive)	20.7 µM (inactive)	> 100 µM (inactive)	> 100 µM (inactive)	> 100 µM (inactive)	> 100 µM (inactive)	> 100 µM (inactive)	> 100 µM (inactive)	> 100 µM (inactive)	> 100 µM (inactive)	> 100 µM (inactive)	> 100 µM (inactive)	> 100 µM (inactive)	> 100 µM (inactive)	> 100 µM (inactive)	> 100 µM (inactive)	> 100 µM (inactive)	> 100 µM (inactive)	> 100 µM (inactive)
Clc1cccc(-c2sc(-c3cccs3)cc2Cc2cccs2)c1	3.71 µM (inactive)	> 10 µM (inactive)	> 10 µM (inactive)	> 10 µM (inactive)	> 10 µM (inactive)	> 10 µM (inactive)	> 10 µM (inactive)	> 10 µM (inactive)	> 10 µM (inactive)	> 10 µM (inactive)	> 10 µM (inactive)	> 10 µM (inactive)	> 10 µM (inactive)	> 10 µM (inactive)	> 10 µM (inactive)	9.84 µM (inactive)	> 10 µM (inactive)	0.74 µM (active)	> 10 µM (inactive)	> 10 µM (inactive)
CC1OC(OC2C(O)COC(OC3C(C)OC(OC4C(OC(=O)[C@]56CCC(C)(C)C[C@@H]5C5=CCC7[C@@]8(C)C[C@H](O)[C@H](OC9OC(CO)C(O)C(O)C9O)[C@@](C)(CO)[C@@H]8CC[C@@]7(C)[C@]5(C)CC6)OCC(O)C4O)C(O)C3OC3OCC(O)(CO)C3O)C2O)C(O)C(O)C1O (stereo not given in full)	25.5 µM (inactive)	3.36 µM (inactive)	8.73 µM (inactive)	12.6 µM (inactive)	14.7 µM (inactive)	15.1 µM (inactive)	2.51 µM (inactive)	14.3 µM (inactive)	9.31 µM (inactive)	15.7 µM (inactive)	18.8 µM (inactive)	19.8 µM (inactive)	2.58 µM (inactive)	13.3 µM (inactive)	13.9 µM (inactive)	12.6 µM (inactive)	14.7 µM (inactive)	18.8 µM (inactive)	13.6 µM (inactive)	29.2 µM (inactive)
O=C1C(Br)=CC2(C=C1Br)CCNC1=C2C2=NCCc3c[nH]c(c32)C1=O	0.0266 µM (active)	0.308 µM (active)	0.0129 µM (active)	0.102 µM (active)	1.41 µM (inactive)	2.32 µM (inactive)	0.0149 µM (active)	0.811 µM (active)	0.119 µM (active)	0.0794 µM (active)	0.516 µM (active)	0.0615 µM (active)	0.134 µM (active)	0.126 µM (active)	0.0233 µM (active)	0.149 µM (active)	0.0681 µM (active)	0.0828 µM (active)	1.25 µM (inactive)	0.0355 µM (active)
CNc1ncnc(Sc2nc(N)nc3[nH]cnc23)c1[N+](=O)[O-]	0.735 µM (active)	0.676 µM (active)	1.91 µM (inactive)	0.552 µM (active)	35.6 µM (inactive)	0.675 µM (active)	2.13 µM (inactive)	0.356 µM (active)	1.21 µM (inactive)	1.46 µM (inactive)	2.64 µM (inactive)	0.189 µM (active)	0.582 µM (active)	2.9 µM (inactive)	0.39 µM (active)	1.73 µM (inactive)	0.45 µM (active)	0.995 µM (active)	0.971 µM (active)	0.15 µM (active)
